# Data: ChEMBL document CHEMBL1201862, “PubChem BioAssay data set” (2004)
#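 Tested at 5 concentrations; 48 h exposure; 96-well plates; endpoints linearly interpolated, else capped at highest concentration. GI50 is the concentration that inhibits growth by half.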 Active and inactive are the calls of the source. Rule as the data show it: active = GI50 up to about 1.1 µM and inactive = higher.
# What was measured:
# Assay in all cases: NCI anticancer screen, dose series, 48 h
# [1] = tested on: NCI-H460
# [2] = tested on: HCC 2998
# [3] = tested on: SK-OV-3
# [4] = tested on: HCT-116
# [5] = tested on: MDA-MB-435
# [6] = tested on: OVCAR-3
# [7] = tested on: KM12
# [8] = tested on: Malme-3M
# [9] = tested on: SN12C
# [10] = tested on: SK-MEL-5
# [11] = tested on: OVCAR-8
# [12] = tested on: COLO 205
# [13] = tested on: T47D
# [14] = tested on: U-251
# [15] = tested on: M14
# [16] = tested on: BT-549
# [17] = tested on: HL-60
# [18] = tested on: DU-145
# [19] = tested on: SF-268
# [20] = tested on: 786-0
# [21] = tested on: A498
# [22] = tested on: IGROV-1
# [23] = tested on: UACC-62
# [24] = tested on: SNB-19
# [25] = tested on: PC-3
# [26] = tested on: SK-MEL-28
# [27] = tested on: HOP-62
# [28] = tested on: TK-10
# [29] = tested on: CAKI-1
# [30] = tested on: MDA-MB-231
# [31] = tested on: ACHN
# [32] = tested on: CCRF-CEM
# [33] = tested on: HOP-92
# [34] = tested on: SK-MEL-2
# [35] = tested on: UACC-257
# [36] = tested on: HCT-15
# [37] = tested on: SF-295
# [38] = tested on: MCF7
# [39] = tested on: K562
# [40] = tested on: OVCAR-5
# [41] = tested on: MDA-N
# [42] = tested on: RXF 393
# [43] = tested on: LOX IMVI
# [44] = tested on: HT-29
# [45] = tested on: EKVX
# [46] = tested on: NCI-H522
# [47] = tested on: OVCAR-4
# [48] = tested on: NCI-H226
# [49] = tested on: NCI/ADR-RES
# [50] = tested on: SW-620
# [51] = tested on: SF-539
# [52] = tested on: MOLT-4
# [53] = tested on: SR
# [54] = tested on: A549
# [55] = tested on: Hs-578T
# [56] = tested on: UO-31
# [57] = tested on: SNB-75
# [58] = tested on: RPMI-8226
# [59] = tested on: NCI-H23
structure (smiles),measurement,setting,value
CC(=O)N1CCn2c1nc1cc(Cl)ccc12,GI50,[1],77.6 µM (inactive)
same,GI50,[2],> 100 µM (inactive)
same,GI50,[3],25.1 µM (inactive)
same,GI50,[4],44 µM (inactive)
same,GI50,[5],> 100 µM (inactive)
same,GI50,[6],95.1 µM (inactive)
same,GI50,[7],> 100 µM (inactive)
same,GI50,[8],> 100 µM (inactive)
same,GI50,[9],> 100 µM (inactive)
same,GI50,[10],> 100 µM (inactive)
same,GI50,[11],74.3 µM (inactive)
same,GI50,[12],> 100 µM (inactive)
same,GI50,[13],21.4 µM (inactive)
same,GI50,[14],37.8 µM (inactive)
same,GI50,[15],> 100 µM (inactive)
same,GI50,[16],> 100 µM (inactive)
same,GI50,[17],> 100 µM (inactive)
same,GI50,[18],33.4 µM (inactive)
same,GI50,[19],32.2 µM (inactive)
same,GI50,[20],> 100 µM (inactive)
same,GI50,[21],> 100 µM (inactive)
same,GI50,[22],37.6 µM (inactive)
same,GI50,[23],33.5 µM (inactive)
same,GI50,[24],69 µM (inactive)
same,GI50,[25],47.5 µM (inactive)
same,GI50,[26],> 100 µM (inactive)
same,GI50,[27],19.4 µM (inactive)
same,GI50,[28],63.1 µM (inactive)
same,GI50,[29],> 100 µM (inactive)
same,GI50,[30],34.5 µM (inactive)
same,GI50,[31],34.4 µM (inactive)
same,GI50,[32],> 100000 nM (inactive)
same,GI50,[33],24900 nM (inactive)
same,GI50,[34],26.1 µM (inactive)
same,GI50,[35],> 100 µM (inactive)
same,GI50,[36],35.2 µM
same,GI50,[37],47.8 µM (inactive)
same,GI50,[38],> 100 µM (inactive)
same,GI50,[39],> 100 µM (inactive)
same,GI50,[40],> 100 µM (inactive)
same,GI50,[41],> 100 µM (inactive)
same,GI50,[42],20.8 µM (inactive)
same,GI50,[43],39.2 µM (inactive)
same,GI50,[44],> 100 µM (inactive)
same,GI50,[45],54.3 µM (inactive)
same,GI50,[46],42.5 µM (inactive)
same,GI50,[47],> 100 µM (inactive)
same,GI50,[48],94.8 µM (inactive)
same,GI50,[49],> 100 µM (inactive)
same,GI50,[50],> 100 µM (inactive)
same,GI50,[51],26.4 µM (inactive)
same,GI50,[52],> 100 µM (inactive)
same,GI50,[53],> 100 µM (inactive)
same,GI50,[54],> 100 µM (inactive)
same,GI50,[55],31.4 µM (inactive)
CCCNC(=O)CCC(C)[C@H]1CCC2C3C(C[C@H](OC(C)=O)[C@@]21C)[C@@]1(C)CCC2(C[C@H]1C[C@H]3OC(C)=O)OOC1(CCC(C)CC1)OO2 (stereo not given in full),GI50,[1],23.5 µM (inactive)
same,GI50,[2],40.1 µM (inactive)
same,GI50,[3],60.5 µM (inactive)
same,GI50,[4],32.1 µM (inactive)
same,GI50,[5],18.9 µM (inactive)
same,GI50,[6],4.78 µM (inactive)
same,GI50,[7],5.52 µM (inactive)
same,GI50,[8],18.6 µM (inactive)
same,GI50,[9],43.6 µM (inactive)
same,GI50,[10],14.6 µM (inactive)
same,GI50,[11],19.5 µM (inactive)
same,GI50,[12],14.8 µM (inactive)
same,GI50,[13],15.9 µM (inactive)
same,GI50,[14],14.8 µM (inactive)
same,GI50,[56],959 nM (active)
same,GI50,[15],26.4 µM (inactive)
same,GI50,[16],27.1 µM (inactive)
same,GI50,[17],13.1 µM (inactive)
same,GI50,[57],23 µM (inactive)
same,GI50,[18],9.31 µM (inactive)
same,GI50,[19],20 µM (inactive)
same,GI50,[20],16.2 µM (inactive)
same,GI50,[21],22.2 µM (inactive)
same,GI50,[22],1.87 µM (inactive)
same,GI50,[23],43.5 µM (inactive)
same,GI50,[24],80.2 µM (inactive)
same,GI50,[25],19.8 µM (inactive)
same,GI50,[26],89.7 µM (inactive)
same,GI50,[27],1.72 µM (inactive)
same,GI50,[28],28.7 µM (inactive)
same,GI50,[29],2.28 µM (inactive)
same,GI50,[30],29.1 µM (inactive)
same,GI50,[31],2.14 µM (inactive)
same,GI50,[32],37.6 nM (active)
same,GI50,[33],44.7 nM (active)
same,GI50,[34],19.5 µM (inactive)
same,GI50,[35],23.2 µM (inactive)
same,GI50,[36],35.3 µM
same,GI50,[37],26.7 µM (inactive)
same,GI50,[38],34.7 µM (inactive)
same,GI50,[39],33.2 µM (inactive)
same,GI50,[40],29.2 µM (inactive)
same,GI50,[41],14.3 µM (inactive)
same,GI50,[42],50 µM (inactive)
same,GI50,[44],36.9 µM (inactive)
same,GI50,[58],3.65 µM (inactive)
same,GI50,[45],13.6 µM (inactive)
same,GI50,[46],13 µM (inactive)
same,GI50,[47],15.8 µM (inactive)
same,GI50,[48],55.3 µM (inactive)
same,GI50,[49],16.6 µM (inactive)
same,GI50,[59],4.88 µM (inactive)
same,GI50,[51],16.7 µM (inactive)
same,GI50,[52],37.7 µM (inactive)
same,GI50,[53],9.79 µM (inactive)
same,GI50,[54],2.17 µM (inactive)
same,GI50,[55],31 µM (inactive)
COC1/C=C\C=C(/C)C(=O)NC2=CC(=O)C(O)=C(CC(C)CC(OC)C(O)C(C)/C=C(\C)C1OC(N)=O)C2=O (stereo not given),GI50,[1],1.5 µM (inactive)
same,GI50,[2],1.4 µM (inactive)
same,GI50,[3],3.59 µM (inactive)
same,GI50,[4],0.267 µM (active)
same,GI50,[5],0.0537 µM (active)
same,GI50,[6],0.325 µM (active)
same,GI50,[7],0.649 µM (active)
same,GI50,[8],0.0668 µM (active)
same,GI50,[9],0.0446 µM (active)
same,GI50,[10],0.859 µM (active)
same,GI50,[11],0.351 µM (active)
same,GI50,[12],0.0422 µM (active)
same,GI50,[13],7.05 µM (inactive)
same,GI50,[14],1.03 µM (active)
same,GI50,[56],3950 nM (inactive)
same,GI50,[15],0.56 µM (active)
same,GI50,[16],40.5 µM (inactive)
same,GI50,[17],0.169 µM (active)
same,GI50,[18],0.115 µM (active)
same,GI50,[19],5.7 µM (inactive)
same,GI50,[20],10.1 µM (inactive)
same,GI50,[21],38.5 µM (inactive)
same,GI50,[22],0.757 µM (active)
same,GI50,[23],0.382 µM (active)
same,GI50,[24],15.8 µM (inactive)
same,GI50,[25],0.253 µM (active)
same,GI50,[26],0.316 µM (active)
same,GI50,[27],13.7 µM (inactive)
same,GI50,[28],0.438 µM (active)
same,GI50,[29],2.55 µM (inactive)
same,GI50,[30],0.366 µM (active)
same,GI50,[31],2.81 µM (inactive)
same,GI50,[32],28.2 nM (active)
same,GI50,[33],382 nM (active)
same,GI50,[34],0.893 µM (active)
same,GI50,[35],0.384 µM (active)
same,GI50,[36],2.26 µM
same,GI50,[37],4.99 µM (inactive)
same,GI50,[38],0.0826 µM (active)
same,GI50,[39],0.137 µM (active)
same,GI50,[40],11.5 µM (inactive)
same,GI50,[41],0.0364 µM (active)
same,GI50,[42],0.136 µM (active)
same,GI50,[43],0.406 µM (active)
same,GI50,[44],0.0269 µM (active)
same,GI50,[58],0.0789 µM (active)
same,GI50,[45],10.8 µM (inactive)
same,GI50,[46],0.0596 µM (active)
same,GI50,[47],10.3 µM (inactive)
same,GI50,[48],> 100 µM (inactive)
same,GI50,[49],64.6 µM (inactive)
same,GI50,[50],0.0158 µM (active)
same,GI50,[59],0.482 µM (active)
same,GI50,[51],0.984 µM (active)
same,GI50,[52],0.0959 µM (active)
same,GI50,[53],0.0406 µM (active)
same,GI50,[54],4.79 µM (inactive)
same,GI50,[55],3.13 µM (inactive)
